According to patent publication US20110318415A1, “Hollow Gold Nanospheres (HAuNSs) and HAuNSs-Loaded Microspheres Useful in Drug Delivery” (priority 2009, published 2011):

Key:
MDA-MB-231 cells [1] = assay: Cell uptake of DOX@HAuNS and DOX@PEG-HAuNS (fluorescence and dark-field microscopy); format: cell-based, human; details: without NIR laser; 1 h to 48 h incubation
Protocol: MDA-MB-231 cells were transferred and cultured onto 20-mm glass cover slips in a 24-well plate and allowed to grow for 2 days. Then the medium was replaced with 1 mL of fresh culture medium containing free DOX, DOX@HAuNS, or DOX@PEG-HAuNS. After incubation for 1 hr or 48 h, the cell monolayer on the cover slip was removed, repeatedly rinsed with PBS, and then mounted for microscopic examination. The cellular fluorescence and dark-field light scattering images were examined under a Zeiss Axio Observer.Z1 fluorescence microscope (Carl Zeiss MicroImaging GmbH, USA) equipped with a dark-field condenser.
In a separated experiment, MDA-MB-231 cells cultured on 20-mm glass cover slips were irradiated with NIR laser (1.0 W/cm^2 for 3 min per treatment, 4 treatments in 2 h). Cell nuclei were stained with DAPI. The cellular fluorescence and light scattering images were obtained as described in the preceding paragraph.

MDA-MB-231 cells [2] = assay: Cytotoxicity of DOX-HAuNS and DOX-PEG-HAuNS (MTT); format: cell-based, human; details: equivalent DOX concentration 10 μg/mL, no NIR
Protocol: A total of 2.0×10^4 cells were plated in 96-well plates and incubated for 24 h to allow the cells to attach. The cells were exposed to free DOX, DOX@HAuNS, or DOX@PEG-HAuNS with various DOX concentrations. The cells were or were not irradiated with NIR laser at an output power of 2 W/cm^2 (3 min per treatment, 4 treatments in 2 h). Then the cells were incubated at 37° C. for a further 48 h. […] The data reported represented the means of triplicate measurements. In a separate experiment, the cells were exposed to HAuNS with various Au concentrations and then were or were not irradiated with NIR laser under the same conditions. Cell survival efficiency was measured after the incubation at 37° C. for 48 h.

With `COc1cccc2c1C(=O)c1c(O)c3c(c(O)c1C2=O)C[C@@](O)(C(=O)CO)C[C@@H]3O[C@H]1C[C@H](N)[C@H](O)[C@H](C)O1` [free DOX, doxorubicin] the “cellular uptake and intracellular distribution” value (MDA-MB-231 cells [1]) was “taken up by the tumor cells and distributed to cell nuclei” and the cells killed (MDA-MB-231 cells [2]) was 77.4%.
